Source: patent publication US10894798B2, “Substituted dihydropyrrolopyrazole derivative” (UBE INDUSTRIES, LTD., priority 2015, dated 2021)
Where two headings read alike, the source gives them in different places. One block for each molecule: values may come before it.

Columns and labels:
[1] = system: uterus cancer cell line C-33A; assay: Various human cancer cell growth inhibition test: C-33A; format: cell-based; conditions: ATPlite, read-out: GI50 value (concentration necessary for inhibiting 50% of cell growth)
Description: (§1) A breast cancer cell line BT-549 (obtained from American Type Culture Collection (ATCC)), a uterus cancer cell line C-33A (obtained from ATCC), an ovary cancer cell line PA-1 (obtained from ATCC), a large-cell lung cancer cell line NCI-H460 (obtained from ATCC), a small-cell lung cancer cell line NCI-H82 (obtained from ATCC), a kidney cancer cell line ACHN (obtained from ATCC), a pancreatic cancer cell line BxPC-3 (obtained from ATCC), a malignant melanoma cell line A375 (obtained from ATCC), a throat cancer cell line FaDu (obtained from ATCC), a medulloblastoma cell line Daoy (obtained from ATCC), a cutaneous epithelioid sarcoma cell line VA-ES-BJ (obtained from ATCC), a rhabdomyosarcoma cell line A-204 (obtained from ATCC), a prostate cancer cell line DU145 (obtained from ATCC), a bladder cancer cell line T24 (obtained from ATCC), a lymphoma cell line SR (obtained from ATCC), a neuroblastoma cell line SH-SY5Y (obtained from DS Pharma Biomedical Co., Ltd.), a liver cancer cell line HepG2 (obtained from DS Pharma Biomedical Co., Ltd.), a stomach cancer cell line HGC-27 (obtained from DS Pharma Biomedical Co., Ltd.), and a multiple myeloma cell line NCI-H929 (obtained from DS Pharma Biomedical Co., Ltd.) were used as human cancer cell lines.
(§2) Each cell line was cultured in a cell culture medium recommended by ATCC or DS Pharma Biomedical Co., Ltd. and inoculated at 0.3 to 5.0×10^3 cells/well to a 96-well plate. The cells were cultured overnight in a carbon dioxide incubator of 37° C. containing 5% carbon dioxide. The medium was replaced with a fresh medium on the next day, then replaced with a mixed solution of a DMSO solution of a test compound with varying concentrations and a culture medium (final DMSO concentration: 0.1%), and left standing in a carbon dioxide incubator (day 0). IV-361, IV-379, IV-3, IV-215, IV-299, IV-669, IV-1049, and palbociclib (for comparison) were used as test compounds. For a control group, DMSO was added instead of the DMSO solution of the test compound to a cell culture medium (final DMSO concentration: 0.1%).
(§3) After culture for a predetermined period, the ATP activity of BT-549, C-33A, PA-1, NCI-H460, NCI-H82, ACHN, BxPC-3, A375, FaDu, Daoy, VA-ES-BJ, A-204, DU145, T24, and SR was measured by using ATPlite (manufactured by PerkinElmer, Inc.). The ATP activity of SH-SY5Y, HepG2, HGC-27, and NCI-H929 was measured by using CellTiter-Glo (manufactured by Promega Corp.).
(§4) The rate of inhibition of cell growth (%) was calculated according to the expression given below. Specifically, in the case where the difference between the ATP activity before culture (day 0) and the ATP activity after culture in the test compound-administered group is the same as the difference between the ATP activity before culture (day 0) and the ATP activity after culture in the control group, the rate of inhibition of cell growth is 0%. Rate of inhibition of cell growth=(1−((ATP activity of the test compound-administered group after culture)−(ATP activity of the test compound-administered group on day 0))/((ATP activity of the control group after culture)−(ATP activity of the control group on day 0)))×100
(§5) The concentration of the test compound necessary for inhibiting 50% of cell growth (GI50 value) was calculated by using EXSUS (version 8.1.0, manufactured by CAC Exicare Corp.).

[2] = system: rhabdomyosarcoma cell line A-204; assay: Various human cancer cell growth inhibition test: A-204; format: cell-based; conditions: A204, ATPlite, read-out: GI50 value (concentration necessary for inhibiting 50% of cell growth)
Description: as §1, §2, §3, §4, §5

[3] = system: medulloblastoma cell line Daoy; assay: Various human cancer cell growth inhibition test: Daoy; format: cell-based; conditions: ATPlite, read-out: GI50 value (concentration necessary for inhibiting 50% of cell growth)
Description: as §1, §2, §3, §4, §5

[4] = system: prostate cancer cell line DU145; assay: Various human cancer cell growth inhibition test: DU145; format: cell-based; conditions: DU 145, ATPlite, read-out: GI50 value (concentration necessary for inhibiting 50% of cell growth)
Description: as §1, §2, §3, §4, §5

IL-2 production = assay: Human PBMC CD3/CD28-induced IL-2 production inhibition test; format: cell-based; conditions: 48 h, read-out: IC50 value, IL-2 production inhibition
Procedure: PBMC (peripheral blood mononuclear cell) was separated and collected by using Ficoll-Paque (manufactured by GE Healthcare Japan Corp.) from blood collected from a healthy human adult in the presence of heparin. A RPMI1640 medium containing 10% FBS, 1% penicillin/streptomycin/amphotericin B, essential amino acids, and pyruvic acid and containing a test compound dissolved in DMSO and 2 μg/mL CD28 was added at 100 μL/well to T cell Activation Plate Anti-Human CD3 96-well plate (manufactured by Becton, Dickinson and Company), and subsequently, a PBMC suspension prepared such that the number of cells was 2×10^6 cells/mL was added thereto at 100 μL/well (final DMSO concentration: 0.1%). A RPMI1640 medium containing 10% FBS and containing 0.1% DMSO and 2 μg/mL CD28 was similarly added to wells not supplemented with the test compound. After culture for 2 days in a carbon dioxide incubator, the culture supernatant was collected. The collected culture supernatant was stored at −20° C. until IL-2 content measurement.
In the measurement of an L-2 content in the culture supernatant, a sandwich ELISA kit (Quantikine Human IL-2, manufactured by R&D Systems, Inc.) was used. The L-2 content of each sample was calculated from the calibration curve of Standard IL-2 included in the kit. […] A test compound concentration necessary for inhibiting 50% of L-2 production (IC50 value) was calculated from the concentration of the added test compound and the rate of inhibition of IL-2 production by the test compound by using EXSUS (version 8.1.0, manufactured by CAC Exicare Corp.).

[5] = system: throat cancer cell line FaDu; assay: Various human cancer cell growth inhibition test: FaDu; format: cell-based; conditions: ATPlite, read-out: GI50 value (concentration necessary for inhibiting 50% of cell growth)
Description: as §1, §2, §3, §4, §5

[6] = system: mouse imiquimod-induced psoriasis model; assay: Ear thickening suppression test using mouse imiquimod-induced psoriasis model; format: in vivo; conditions: topical, application of a 0.01% solution in methanol, female BALB/c mice, read-out: rate of inhibition of increase in ear thickness
Procedure: An imiquimod-induced psoriasis model test was carried out by modifying the method of Leslie van der Fits et al. (J. Immunol. 182, 5836 (2009)).
Female BALB/c mice (supplied by Charles River Laboratories Japan, Inc.) were used as laboratory animals. On the start day of the test, the thicknesses of the right auricles of the mice were measured with a thickness gauge (manufactured by TECLOCK Corp.). A test compound or a solvent was applied or orally administered thereto, and after a certain time, a certain amount of Beselna Cream 5% (containing 5% imiquimod, manufactured by Mochida Pharmaceutical Co., Ltd.) was applied to the insides of the right auricles. The test compound or solvent application or oral administration and the imiquimod application were carried out for a certain period, and the thicknesses of the right auricles were measured again on the final day. The thicknesses of the right auricles were compared between the solvent-administered group and the test compound group, and the rate of inhibition was calculated.

[7] = human PBMC, CD3/CD28 stimulation, culture for 2 days, ELISA

GI50 [1]: < 300 nM
GI50 [2]: < 300 nM
GI50 [3]: < 300 nM
GI50 [4]: < 300 nM
IC50 (IL-2 production; [7]): ≤ 100 nM
GI50 [5]: < 300 nM
Compound: CC1(C)c2[nH]nc(NC(=O)C3([Si](C)(C)C)CCC3)c2CN1C(=O)Nc1ccccc1F [IV-3, N-(2-Fluorophenyl)-6,6-dimethyl-3-[1-(trimethylsilyl)cyclobutanecarboxamido]-4,6-dihydropyrrolo[3,4-c]pyrazole-5(1H)-carboxamide]

IC50 (IL-2 production; [7]): ≤ 100 nM
Compound: Cc1ccccc1NC(=O)N1Cc2c(NC(=O)C3([Si](C)(C)C)CCC3)n[nH]c2C1(C)C [IV-21, 6,6-Dimethyl-N-(o-tolyl)-3-[1-(trimethylsilyl)cyclobutanecarboxamido]-4,6-dihydropyrrolo[3,4-c]pyrazole-5(1H)-carboxamide]

IC50 (IL-2 production; [7]): ≤ 100 nM
Compound: Cc1ccc(F)c(NC(=O)N2Cc3c(NC(=O)C4([Si](C)(C)C)CCC4)n[nH]c3C2(C)C)c1 [IV-127, N-(2-Fluoro-5-methylphenyl)-6,6-dimethyl-3-[1-(trimethylsilyl)cyclobutanecarboxamido]-4,6-dihydropyrrolo[3,4-c]pyrazole-5 (1H)-carboxamide]

IC50 (IL-2 production; [7]): ≤ 100 nM
Compound: COc1cccc(F)c1NC(=O)N1Cc2c(NC(=O)C3([Si](C)(C)C)CCC3)n[nH]c2C1(C)C [IV-161, N-(2-Fluoro-6-methoxyphenyl)-6,6-dimethyl-3-[1-(trimethylsilyl)cyclobutanecarboxamido]-4,6-dihydropyrrolo[3,4-c]pyrazole-5(1H)-carboxamide]

GI50 [1]: < 300 nM
GI50 [2]: < 300 nM
GI50 [3]: < 300 nM
GI50 [4]: < 300 nM
IC50 (IL-2 production; [7]): ≤ 100 nM
GI50 [5]: < 300 nM
Compound: Cc1ccc(F)cc1NC(=O)N1Cc2c(NC(=O)C3([Si](C)(C)C)CCC3)n[nH]c2C1(C)C [IV-361, N-(5-Fluoro-2-methylphenyl)-6,6-dimethyl-3-[1-(trimethylsilyl)cyclobutanecarboxamido]-4,6-dihydropyrrolo[3,4-c]pyrazole-5 (1H)-carboxamide]

GI50 [1]: < 300 nM
GI50 [2]: < 300 nM
GI50 [3]: < 300 nM
GI50 [4]: < 300 nM
IC50 (IL-2 production; [7]): ≤ 100 nM
GI50 [5]: < 300 nM
Compound: Cc1ccc(C)c(NC(=O)N2Cc3c(NC(=O)C4([Si](C)(C)C)CCC4)n[nH]c3C2(C)C)c1 [IV-379, N-(2,5-Dimethylphenyl)-6,6-dimethyl-3-[1-(trimethylsilyl)cyclobutanecarboxamido]-4,6-dihydropyrrolo[3,4-c]pyrazole-5(1H)-carboxamide]

GI50 [1]: < 300 nM
GI50 [2]: < 300 nM
GI50 [3]: < 300 nM
GI50 [4]: < 300 nM
IC50 (IL-2 production; [7]): ≤ 100 nM
GI50 [5]: < 300 nM
Compound: Cc1ccc(C)c(NC(=O)N2Cc3c(NC(=O)C4([Si](C)(C)C)CCC4)n[nH]c3C2(C)C)c1F [IV-669, N-(2-Fluoro-3,6-dimethylphenyl)-6,6-dimethyl-3-[1-(trimethylsilyl)cyclobutanecarboxamido]-4,6-dihydropyrrolo[3,4-c]pyrazole-5(1H)-carboxamide]

More lines, now with the values behind:

Compound: CC1(C)c2[nH]nc(NC(=O)C3([Si](C)(C)C)CCC3)c2CN1C(=O)Nc1c(F)cccc1Cl [IV-113, N-(2-Chloro-6-fluorophenyl)-6,6-dimethyl-3-[1-(trimethylsilyl)cyclobutanecarboxamido]-4,6-dihydropyrrolo[3,4-c]pyrazole-5(1H)-carboxamide]
IC50 (IL-2 production; Homo sapiens, PBMC): ≤ 100 nM

Compound: Cc1cccc(F)c1NC(=O)N1Cc2c(NC(=O)C3([Si](C)(C)C)CCC3)n[nH]c2C1(C)C [IV-129, N-(2-Fluoro-6-methylphenyl)-6,6-dimethyl-3-[1-(trimethylsilyl)cyclobutanecarboxamido]-4,6-dihydropyrrolo[3,4-c]pyrazole-5 (1H)-carboxamide]
inhibition in vivo at 0.01 % [6]: ≥ 50%

Compound: CCc1cccc(F)c1NC(=O)N1Cc2c(NC(=O)C3([Si](C)(C)C)CCC3)n[nH]c2C1(C)C [IV-137, N-(2-Ethyl-6-fluorophenyl)-6,6-dimethyl-3-[1-(trimethylsilyl)cyclobutanecarboxamido]-4,6-dihydropyrrolo[3,4-c]pyrazole-5(1H)-carboxamide]
inhibition in vivo at 0.01 % [6]: ≥ 50%

Compound: CC1(C)c2[nH]nc(NC(=O)C3([Si](C)(C)C)CCC3)c2CN1C(=O)Nc1c(F)cccc1OC(F)F [IV-169, N-[2-(Difluoromethoxy)-6-fluorophenyl]-6,6-dimethyl-3-[1-(trimethylsilyl)cyclobutanecarboxamido]-4,6-dihydropyrrolo[3,4-c]pyrazole-5(1H)-carboxamide]
inhibition in vivo at 0.01 % [6]: ≥ 50%

Compound: CC1(C)c2[nH]nc(NC(=O)C3([Si](C)(C)C)CCC3)c2CN1C(=O)Nc1c(Cl)cccc1Cl [IV-199, N-(2,6-Dichlorophenyl)-6,6-dimethyl-3-[1-(trimethylsilyl)cyclobutanecarboxamido]-4,6-dihydropyrrolo[3,4-c]pyrazole-5(1H)-carboxamide]
inhibition in vivo at 0.01 % [6]: ≥ 50%

Compound: COc1cccc(Cl)c1NC(=O)N1Cc2c(NC(=O)C3([Si](C)(C)C)CCC3)n[nH]c2C1(C)C [IV-247, N-(2-Chloro-6-methoxyphenyl)-6,6-dimethyl-3-[1-(trimethylsilyl)cyclobutanecarboxamido]-4,6-dihydropyrrolo[3,4-c]pyrazole-5(1H)-carboxamide]
inhibition in vivo at 0.01 % [6]: ≥ 50%

Compound: CCc1cccc(C)c1NC(=O)N1Cc2c(NC(=O)C3([Si](C)(C)C)CCC3)n[nH]c2C1(C)C [IV-389, N-(2-Ethyl-6-methylphenyl)-6,6-dimethyl-3-[1-(trimethylsilyl)cyclobutanecarboxamido]-4,6-dihydropyrrolo[3,4-c]pyrazole-5 (1H)-carboxamide]
inhibition in vivo at 0.01 % [6]: ≥ 50%
